Data published in PMC12279247, “Inhibition of RACK1‐Mediated NLRP3 Oligomerization (Active Conformation) Ameliorates Acute Respiratory Distress Syndrome” (Advanced Science, 2025).

Molecular target: T1, recombinant human RACK1 protein (Homo sapiens, UniProt P63244)
T1 construct: commercial recombinant protein
Test: surface plasmon resonance, bigelovin loaded on CM5 chip, RACK1 flowed over
Assay type: binding
Settings: PBS pH 7.4, 0.05% Tween-20, 22 °C; covalent, Cys168

Structure (SMILES): C=C1C(=O)O[C@H]2C[C@@H](C)[C@@H]3C=CC(=O)[C@@]3(C)[C@@H](OC(C)=O)[C@H]12 [bigelovin]
- Kd: 240 nM
